According to paper PMC9002265, “A New Series of Strigolactone Analogs Derived From Cinnamic Acids as Germination Inducers for Root Parasitic Plants” (Frontiers in Plant Science, 2022):
Where two headings read alike, the source gives them in different places.

What was measured:
Striga hermonthica seeds = tested on: Striga hermonthica seeds; parameters: method as in Uraguchi et al., 2018; settings: ref Uraguchi et al., 2018; cited from earlier work
ShHTL7 [1] = target: T1, ShHTL7 (Striga hermonthica, UniProt A0A0M3PNA2); experiment: YLG assay (inhibition of YLG hydrolysis) with recombinant ShHTL7; type: biochemical
T1 sequence (A0A0M3PNA2 1-271): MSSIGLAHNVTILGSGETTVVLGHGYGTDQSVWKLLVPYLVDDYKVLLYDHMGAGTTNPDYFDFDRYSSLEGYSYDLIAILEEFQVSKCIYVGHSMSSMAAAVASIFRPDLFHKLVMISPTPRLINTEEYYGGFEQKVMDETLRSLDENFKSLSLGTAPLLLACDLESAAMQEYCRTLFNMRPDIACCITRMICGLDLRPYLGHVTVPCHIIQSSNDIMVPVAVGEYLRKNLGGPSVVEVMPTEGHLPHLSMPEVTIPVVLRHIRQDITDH
Protocol: (§1) The ORF fragment of ShHTL6 and ShHTL7 was synthesized using IDT gBlock service. The PCR amplified ShHTL6 and ShHTL7 fragment was digested with Nco I and EcoR I, and the digested product was introduced into a modified pET28 vector with an N-terminal His8 tag. Escherichia coli BL21(DE3) was used for protein expression. The overnight culture (12 ml) was added to a fresh LB medium (1.2 L) containing kanamycin (50 mg/L) at 37°C. After OD600 reached 0.8, 0.1 mM IPTG was added and the cell was further incubated at 16°C for 21 h. The culture medium was centrifuged at 3700 g and the pellet was stored at −20°C until use. The pellet was resuspended and sonicated in a lysis buffer (50 mM Tris buffer (pH 8.0) containing 500 mM NaCl, 10 mM 2-mercaptoethanol, and 10% glycerol). The supernatant was purified by Ni Sepharose TM 6 Fast Flow (500 μl, Cytiva). After washing with the washing buffer (50 mM Tris buffer (pH 8.0) containing 500 mM NaCl and 20 mM imidazole), The bound protein was eluted with elution buffer (50 mM Tris buffer (pH 8.0) containing 500 mM NaCl and 200 mM imidazole). The eluate was concentrated using VIVASPIN Turbo 15 (Sartorius), and the concentration was adjusted to 5 mg/ml. The purified protein was aliquoted to the appropriate volume, immediately frozen in liquid nitrogen, and stored at −80°C until use.
(§2) After YLG was incubated with recombinant ShHTL6 or ShHTL7 for 1 h, the fluorescence was measured by spectraMax i5 (Molecular Devices) at excitation by 480 nm and detection by 520 nm. IC50 values were calculated using the online tool Quest GraphTM IC50 Calculator (AAT Bioquest, Inc., United States; https://www.aatbio.com/tools/ ic50-calculator).

Orobanche minor seeds = experiment: Germination assay, Orobanche minor seeds; type: in vivo; settings: O. minor seeds; result in words
Protocol: Orobanche minor seeds were washed with 70% EtOH, and then sonicated for 4 min in 1% sodium hypochlorite solution containing 0.2% Tween-20. The seeds were then washed 10 times with sterile water and suspended in 0.1% agar solution. The seeds were loaded onto 5-mm glass fiber filter disks (20–70 seeds/disk) and were conditioned at 23°C for 15 days. Each disk was transferred into a 96-well plate. A 30 μl aliquot of test chemical solution was added to the well. For the germination assay, the chemical solutions were prepared by 1,000 times dilution from each acetone stock solution with water (final acetone concentration was 0.1%). GR24 solution (0.1% acetone) and sterile water (0.1% acetone) was used as positive and negative control, respectively. The 96 well plates were incubated for 5 days at 23°C and the number of total seeds and germinated seeds was counted.

ShHTL6 = target: T2, ShHTL6 (Striga hermonthica, UniProt A0A0M4AUV4); experiment: YLG assay (inhibition of YLG hydrolysis) with recombinant ShHTL6; type: biochemical
T2 sequence (A0A0M4AUV4 1-271): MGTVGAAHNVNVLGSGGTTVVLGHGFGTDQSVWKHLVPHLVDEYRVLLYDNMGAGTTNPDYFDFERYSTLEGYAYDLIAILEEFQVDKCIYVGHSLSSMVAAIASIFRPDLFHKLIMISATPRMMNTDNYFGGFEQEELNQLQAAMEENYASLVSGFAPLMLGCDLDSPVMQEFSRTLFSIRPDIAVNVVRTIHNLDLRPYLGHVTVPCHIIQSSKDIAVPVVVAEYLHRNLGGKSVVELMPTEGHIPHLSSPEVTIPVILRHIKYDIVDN
Protocol: as §1, §2

[2] = Time course monitoring of degradation in hydroponic culture; type: physicochemical; settings: 1 μM, within 1 week, pH 5.7, LC-MS/MS
Protocol: t-CASL1, c-CASL1, PPASL, and GR5 were separately added to 15 ml tubes containing hydroponic culture. The final concentration of the test compounds is 1 μM and acetone was adjusted to 0.01% (v/v). These solutions were incubated under the same conditions as branching assay. After incubation for 0, 5, 24 72, or 168 h, 495 μl of hydroponic culture containing test compounds was collected and 5 μl of NAA solution (10 μM) was added as an internal standard. The solution was extracted with ethyl acetate. The ethyl acetate phase was dried up under the nitrogen gas and dissolved in acetonitrile. These samples were subjected to LC–MS/MS analysis equipped with reverse-phase column (CORTECS UPLC Phenyl 1.6 μm, ϕ2.1 × 75 mm; Waters). Each peak area of test chemicals and internal standard was calculated, and the remaining percentage of teste chemicals was calculated. At the same time, the degradation products of test compounds (CA or PPA) were also analyzed. Detailed information about the analytical condition was described in Supplementary Table 1.

AtD14 = target: T3, AtD14 (Arabidopsis thaliana, UniProt Q9SQR3); experiment: Hydrolysis assay with recombinant AtD14; type: biochemical; settings: 10 μM substrate, 30°C, 60 min
T3 construct: The cDNA of AtD14 was introduced into pMALHis vector; MBP; His6; made in house; host or cells: E. coli BL21 (DE3)
T3 sequence (Q9SQR3 1-267): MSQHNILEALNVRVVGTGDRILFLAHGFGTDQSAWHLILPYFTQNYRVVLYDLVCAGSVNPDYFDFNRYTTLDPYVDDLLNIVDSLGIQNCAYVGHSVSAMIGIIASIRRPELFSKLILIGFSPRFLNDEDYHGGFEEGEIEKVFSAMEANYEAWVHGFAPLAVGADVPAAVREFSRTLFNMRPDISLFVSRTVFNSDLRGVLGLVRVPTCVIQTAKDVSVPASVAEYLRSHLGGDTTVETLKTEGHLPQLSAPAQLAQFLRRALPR
Protocol: The cDNA of AtD14 was introduced into pMALHis vector that has both MBP-tag and His6-tag. The vector was transformed in to E. coli BL21 (DE3) and the cell was precultured in LB medium containing 50 μg/ml ampicillin. Overnight cultures (10 ml) were added to fresh LB medium (1 L) containing 50 μg/ml ampicillin and it was cultured at 37°C. After OD600 reached to 0.8, the cultures were cooled at 16°C for 1 h, and then 0.1 mM IPTG was added. The culture was further incubated at 16°C for 20 h. The culture medium was centrifuged at 3,700 g and the pellet was stored at −20°C until use. The pellet was resuspended and sonicated in lysis buffer (50 mM Tris buffer (pH 8.0) containing 500 mM NaCl, 10 mM 2-mercaptoethanol, and 10% glycerol). The supernatant was purified by Ni Sepharose TM 6 Fast Flow (500 μl, Cytiva) After washing with the washing buffer (50 mM Tris buffer (pH 8.0) containing 500 mM NaCl and 20 mM imidazole), The bound protein was eluted with elution buffer (50 mM Tris buffer (pH 8.0) containing 500 mM NaCl and 200 mM imidazole). The eluate was concentrated using VIVASPIN Turbo 15 (Sartorius), and the concentration was adjusted to 5 mg/ml. The purified protein was aliquoted to the appropriate volume, immediately frozen in liquid nitrogen, and stored at −80°C until use.
(§3) Hydrolysis assays were carried out at 30°C for 60 min in 100 μl of a reaction buffer containing 0.13 pmol recombinant ShHTL7 or AtD14, 10 μM of substrate in 50 mM Phosphate-Na buffer (pH 7.0) containing 2% acetone. The enzyme reaction was stopped by addition of 100 μl of acetonitrile containing 1-naphtaleneacetic acid (NAA; 0.5 ng/μl) as an internal standard. After centrifuged at 13,000 rpm for 5 min, each sample was subjected to LC–MS/MS analysis equipped with reverse-phase column (CORTECS UPLC Phenyl 1.6 μm, ϕ2.1 × 75 mm; Waters). The concentration of remaining substrate and reaction product was calculated by using NAA as an internal standard. Detailed information about the analytical condition is described in Supplementary Table 1.

ShHTL7 [3] = target: T1, ShHTL7; experiment: Hydrolysis assay with recombinant ShHTL7; type: biochemical; settings: 10 μM substrate, 30°C, 60 min
Protocol: as §1, §3

[4] = tested on: Arabidopsis wild type Col-0; experiment: Growth promoting assay and root phenotypic analysis; type: in vivo; settings: 1 μM on agar plate
Protocol: Sterilized seeds of the Arabidopsis wild type Col-0 were put on the plate containing 1% (w/v) agar-solidified 0.5× Murashige and Skoog (MS) medium, 1% sucrose. Test compounds were dissolved in the medium at 1 μM by 10,000 times dilution from each acetone stock (final concentration of acetone was 0.01% (v/v)). To evaluate the growth promoting effect, these seedlings were cultured horizontally at 22°C for 20 days under LED light (105 μmol/m^2/s) with a 16 h light/8 h dark photoperiod. After the cultivation, flesh weight of shoot was measured. For root phenotypic analysis, these seedlings were cultured verticaly at 22°C for 11 days under LED light (105 μmol/m^2/s) with a 16 h light/8 h dark photoperiod. After the cultivation, root length was measured by using ImageJ software and number of lateral roots was counted by using a microscope.

[5] = 1 h incubation, read-out: IC50 in YLG assay
[6] = read-out: IC50 in YLG assay, 1 h incubation

| Structure (SMILES) | IC50 (ShHTL7 [1]; [5]) [nM] | other results |
| --- | --- | --- |
| CCCCOc1ccc(S(=O)(=O)N2CCN(C(=O)OC3C=C(C)C(=O)O3)CC2)cc1 (stereo not shown) [SPL7, sphynolactone-7] |  | concentration inducing S. hermonthica germination (Striga hermonthica seeds): fM concentrations |
| CC1=CC(OC(=O)/C=C/c2ccc([N+](=O)[O-])cc2)OC1=O (stereo not shown) [t-CASL6] | 710 |  |
| CC1=CC(OC(=O)/C=C\c2ccc(Br)cc2)OC1=O (stereo not shown) [c-CASL8] | 360 |  |
| CC1=CC(OC(=O)/C=C2\CCCc3ccccc32)OC1=O (stereo not shown) [t-tetCASL] | 3850 | germination-inducing activity compared with the corresponding non-fixed (unfixed) analog (Orobanche minor seeds): much stronger activity |
| CC1=CC(OC(=O)/C=C/c2ccccc2)OC1=O (stereo not shown) [t-CASL1] | 2050 | IC50 (ShHTL6): 1850 nM; loss (non-enzymatic degradation) in hydroponic culture medium [2]: ~40%; hydrolysis by AtD14 (AtD14): can hydrolyze; hydrolysis by HTL7 (ShHTL7 [3]): can hydrolyze |
| CC1=CC(OC(=O)CCc2ccccc2)OC1=O (stereo not shown) [PPASL] | 1460 | IC50 (ShHTL6): 2240 nM; germination-inducing activity compared with c-CASL1 or t-CASL1 (Orobanche minor seeds): much weaker activity; hydrolysis by AtD14 (AtD14): can hydrolyze; hydrolysis by HTL7 (ShHTL7 [3]): can hydrolyze |
| CC1=CC(OC(=O)/C=C\c2ccc(C)cc2)OC1=O (stereo not shown) [c-CASL2] | 680 |  |
| CC1=CC(OC(=O)/C=C/c2ccc(Cl)cc2)OC1=O (stereo not shown) [t-CASL9] | 830 |  |
| CC1=CC(OC(=O)/C=C\c2ccc(Cl)cc2)OC1=O (stereo not shown) [c-CASL9] | 340 |  |
| CC1=CC(OC(=O)/C=C/c2ccc(O)cc2)OC1=O (stereo not shown) [t-CASL3] | > 10000 |  |
| CC1=CC(OC(=O)/C=C/c2ccc(C(F)(F)F)cc2)OC1=O (stereo not shown) [t-CASL10] | 340 |  |
| COc1ccc(/C=C\C(=O)OC2C=C(C)C(=O)O2)cc1 (stereo not shown) [c-CASL4] | 660 |  |
| CC1=CC(OC(=O)/C=C\c2ccc([N+](=O)[O-])cc2)OC1=O (stereo not shown) [c-CASL6] | 250 |  |
| CC1=C[C@H](O/C=C2/C(=O)O[C@@H]3c4ccccc4C[C@H]23)OC1=O (relative stereo) [GR24, reference compound] | 170 | IC50 (ShHTL6; ShHTL6, YLG hydrolysis, 1 h incubation, read-out: IC50 in YLG assay): 2350 nM |
| CC1=CC(OC(=O)/C=C/c2ccc(F)cc2)OC1=O (stereo not shown) [t-CASL7] | 1550 |  |
| CC1=CC(OC(=O)/C=C/c2ccc(C)cc2)OC1=O (stereo not shown) [t-CASL2] | 1410 |  |
| CCOc1ccc(/C=C\C(=O)OC2C=C(C)C(=O)O2)cc1 (stereo not shown) [c-CASL5] |  | IC50 (ShHTL7 [1]; [6]): 310 nM |
| O=C(O)/C=C\c1ccccc1 [cis-CA, cis-cinnamic acid, reference compound] |  | lateral root density ([4]; 11 days): increased; primary root length ([4]; 11 days): inhibited; shoot fresh weight ([4]; 20 days): increase |
| CC1=CC(OC(=O)/C=C2\CCc3ccccc32)OC1=O (stereo not shown) [t-indCASL] | 3070 | germination-inducing activity compared with the corresponding non-fixed (unfixed) analog (Orobanche minor seeds): much stronger activity |
| CCOc1ccc(/C=C/C(=O)OC2C=C(C)C(=O)O2)cc1 (stereo not shown) [t-CASL5] |  | IC50 (ShHTL7 [1]; [6]): 3970 nM |
| CC1=CC(OC(=O)/C=C2/CCCc3ccccc32)OC1=O (stereo not shown) [c-tetCASL] | 4610 |  |
| CC1=CC(OC(=O)/C=C\c2ccc(O)cc2)OC1=O (stereo not shown) [c-CASL3] | 3430 |  |
| CC1=CC(OC(=O)/C=C/c2ccc(Br)cc2)OC1=O (stereo not shown) [t-CASL8] | 700 |  |
| CC1=CC(OC(=O)/C=C\c2ccc(C(F)(F)F)cc2)OC1=O (stereo not shown) [c-CASL10] | 220 |  |
| CC1=CC(OC(=O)/C=C\c2ccc(F)cc2)OC1=O (stereo not shown) [c-CASL7] | 1140 |  |
| CC1=CC(OC(=O)/C=C2/CCc3ccccc32)OC1=O (stereo not shown) [c-indCASL] | 2010 |  |
| COc1ccc(/C=C/C(=O)OC2C=C(C)C(=O)O2)cc1 (stereo not shown) [t-CASL4] | 2210 |  |
